# Test results reported in ChEMBL document CHEMBL3243967, “Potential antitumor agents. 25. Azalogues of the 4'-(9-acridinylamino) methanesulfonanilides” (J Med Chem, 1977).
# Experiments:
# [1] = Toxicity in ip dosed mouse allografted with mouse L1210 cells administered qd from day 1 to 5 of challenge; format: organism-based; settings: in vivo
# [2] = Ionization constant, pKa of the compound in 20% DMF-buffer mixture by UV spectrophotometry; format: physicochemical
# [3] = Lipophilic-hydrophilic balance, Rm of the compound by reversed-phase partition chromatography; format: physicochemical
# [4] = Ionization constant, pKa of the compound at pH 7.4; format: physicochemical
# [5] = tested on: L1210; experiment: Antitumor activity against mouse L1210 cells allografted in ip dosed mouse assessed as dose required for maximum increase in life span administered qd from day 1 to 5 of challenge; format: functional
# [6] = tested on: L1210; experiment: Antitumor activity against mouse L1210 cells allografted in ip dosed mouse assessed as increase in life span at optimal dose administered qd from day 1 to 5 of challenge relative to control; format: functional
pKa [4],Structure (SMILES),MTD [1],pKa [2],Rm [3],Activity [5],Increase in life span [6]
,CS(=O)(=O)Nc1ccc(Nc2c3ccccc3nc3ccncc23)cc1,> 500 mg/kg,5.73,-0.39,,
3.68,CS(=O)(=O)Nc1ccc(Nc2c3ccc([N+](=O)[O-])cc3nc3cc([N+](=O)[O-])ccc23)cc1,,,,,
,CS(=O)(=O)Nc1ccc(Nc2c3ccccc3nc3cnccc23)cc1,> 500 mg/kg,5.32,-0.33,,
,CS(=O)(=O)Nc1ccc(Nc2c3ccccc3nc3cccnc23)cc1,> 500 mg/kg,6.9,-0.56,,
,CS(=O)(=O)Nc1ccc(Nc2c3ccccc3nc3cc([N+](=O)[O-])ccc23)cc1,,5.52,-0.17,25 mg/kg,123%
,COc1cc(Nc2c3ccccc3nc3cccnc23)ccc1NS(C)(=O)=O,220 mg/kg,7.19,-0.39,,
,COc1cc(Nc2c3ccccc3nc3ccc([N+](=O)[O-])cc23)ccc1NS(C)(=O)=O,> 500 mg/kg,5.63,-0.06,,
,CS(=O)(=O)Nc1ccc(Nc2c3ccccc3nc3ncccc23)cc1,> 500 mg/kg,5.93,-0.27,,
,COc1cc(Nc2c3ccccc3nc3c([N+](=O)[O-])cccc23)ccc1NS(C)(=O)=O,,5.05,0.09,75 mg/kg,38%
,CS(=O)(=O)Nc1ccc(Nc2c3ccccc3nc3ccc(N)cc23)cc1,,7.15,-0.31,25 mg/kg,78%
,CS(=O)(=O)Nc1ccc(Nc2c3ccccc3nc3c([N+](=O)[O-])cccc23)cc1,> 500 mg/kg,4.88,-0.17,,
,CS(=O)(=O)Nc1ccc(Nc2c3ccccc3nc3cc(N)ccc23)cc1,,9.8,-0.17,2.5 mg/kg,81%
,COc1cc(Nc2c3ccccc3nc3ncccc23)ccc1NS(C)(=O)=O,,6.09,-0.07,62 mg/kg,89%
,CS(=O)(=O)Nc1ccc(Nc2c3ccccc3nc3cccc([N+](=O)[O-])c23)cc1,75 mg/kg,4.79,-0.09,,
,CS(=O)(=O)Nc1ccc(Nc2c3ccccc3nc3ccccc23)cc1,,,0,45 mg/kg,107%
,COc1cc(Nc2c3ccccc3nc3cc([N+](=O)[O-])ccc23)ccc1NS(C)(=O)=O,,5.72,0.11,4.5 mg/kg,84%
,CS(=O)(=O)Nc1ccc(Nc2c3ccccc3nc3ccc([N+](=O)[O-])cc23)cc1,,5.42,-0.21,250 mg/kg,27%
,COc1cc(Nc2c3ccccc3nc3ccncc23)ccc1NS(C)(=O)=O,500 mg/kg,5.84,-0.25,,
,COc1cc(Nc2c3ccccc3nc3cccc([N+](=O)[O-])c23)ccc1NS(C)(=O)=O,,4.98,-0.01,180 mg/kg,44%
,COc1cc(Nc2c3ccccc3nc3cnccc23)ccc1NS(C)(=O)=O,,5.53,-0.13,90 mg/kg,88%
